± gives the expanded uncertainty stated by the source.

Data set [1] is described as follows: xn = mol fraction of the nth substance listed. Conditions: 298.15 K, 101.3 kPa, Liquid.
The conditions of data set [2]: Crystal; DTA.

Usually mass density stands for mass per unit of volume. On to `CN(CCO)CCO` [N-methyldiethanolamine] + C[N+](C)(C)CCO.[Cl-], for which the mass density in data set [1] (Pycnometric method, x2 = 0.125) is recorded as 1053.8 ± 21 kg/m3; in data set [1] (Pycnometric method, x2 = 0.143) it was 1046.8 ± 21 kg/m3.

For the molecule `C[N+](C)(C)CCO.[Cl-]` [choline chloride] + OCCO, the mass density in data set [1] (Vibrating tube method, x1 = 0.333) came to 1116.8 ± 22 kg/m3.

As for `C[N+](C)(C)CCO.[Cl-]` [choline chloride] + OCCOCCO, the mass density in data set [1] (Pycnometric method, x1 = 0.2) stood at 1112.1 ± 22 kg/m3; in data set [1] (Pycnometric method, x1 = 0.25) it was 1116.9 ± 22 kg/m3.

Consider `OCCNCCO` [diethanolamine], for which the Normal melting temperature in data set [2] worked out at 27.00 ± 0.5 °C.

For the molecule `OCCNCCO` [diethanolamine] + CCCC[N+](CCCC)(CCCC)CCCC.[Br-], in data set [1] (Pycnometric method, x2 = 0.143), the mass density turned out to be 1092.7 ± 22 kg/m3.

For `OCCNCCO` [diethanolamine] + C[N+](C)(C)CCO.[Cl-], in data set [1] (Pycnometric method, x2 = 0.143), the mass density is 1098.4 ± 22 kg/m3.

In the case of `CCCC[N+](CCCC)(CCCC)CCCC.[Br-]` [tetrabutylammonium bromide] + CN(CCO)CCO, the mass density in data set [1] (Pycnometric method, x1 = 0.2) was 1056.9 ± 21 kg/m3; in data set [1] (Pycnometric method, x1 = 0.25), 1051.3 ± 21 kg/m3.

Take `CCCC[N+](CCCC)(CCCC)CCCC.[Br-]` [tetrabutylammonium bromide] + OCCO: the mass density is reported as 1072.7 ± 22 kg/m3 in data set [1] (Pycnometric method, x1 = 0.2); 1069.8 ± 21 kg/m3 in data set [1] (Pycnometric method, x1 = 0.25); 1065.8 ± 21 kg/m3 in data set [1] (Pycnometric method, x1 = 0.333).

Regarding `CCCC[N+](CCCC)(CCCC)CCCC.[Br-]` [tetrabutylammonium bromide] + OCCOCCO, the mass density in data set [1] (Pycnometric method, x1 = 0.2) is on record as 1081.8 ± 22 kg/m3; in data set [1] (Pycnometric method, x1 = 0.25) it was 1078.2 ± 22 kg/m3; in data set [1] (Pycnometric method, x1 = 0.333), 1075.4 ± 22 kg/m3.
